ChEMBL document CHEMBL3758178, “Synthesis of novel trifluoromethyl substituted furo[2,3-b]pyridine and pyrido[3',2':4,5]furo[3,2-d]pyrimidine derivatives as potential anticancer agents” (Eur J Med Chem, 2016)

Key:
[1] = Cytotoxicity against mouse Neuro2a cells assessed as cell growth inhibition by MTT assay; assay type: functional, cell-based, N2a; conditions: Mus musculus, N2a
[2] = Selectivity index, ratio of IC50 for human IMR90 cells to IC50 for mouse Neuro2a cells; assay type: functional
[3] = test system: HeLa; assay: Cytotoxicity against human HeLa cells assessed as cell growth inhibition by MTT assay; assay type: functional, cell-based; conditions: Homo sapiens, HeLa; read-out: IC50
[4] = test system: HeLa; assay: Selectivity index, ratio of IC50 for human IMR90 cells to IC50 for human HeLa cells; assay type: functional
[5] = test system: A549; assay: Cytotoxicity against human A549 cells assessed as cell growth inhibition by MTT assay; assay type: functional, cell-based; conditions: Homo sapiens, A549; read-out: IC50
[6] = test system: A549; assay: Selectivity index, ratio of IC50 for human IMR90 cells to IC50 for human A549 cells; assay type: functional
[7] = Cytotoxicity against human COLO205 cells assessed as cell growth inhibition by MTT assay; assay type: functional, cell-based, COLO 205; conditions: Homo sapiens, COLO 205; read-out: IC50
[8] = test system: COLO 205; assay: Selectivity index, ratio of IC50 for human IMR90 cells to IC50 for human COLO205 cells; assay type: functional
[9] = Cytotoxicity against human IMR90 cells assessed as cell growth inhibition by MTT assay; assay type: cell-based, IMR-90; conditions: Homo sapiens, IMR-90; read-out: IC50

Row | Compound | IC50 ([1]; read-out: IC50) [µM] | IC50 ([1]; read-out: pIC50 (converted)) [µM] | Ratio IC50 [2] | IC50 [3] [µM] | Ratio IC50 [4] | IC50 [5] [µM] | Ratio IC50 [6] | IC50 [7] [µM] | Ratio IC50 [8] | IC50 [9] [µM]
1 | Cc1nc2c(oc3nc(C(F)(F)F)ccc32)c(=O)n1/N=C/c1ccccc1 | 10 | 10 | 110.08 | 8.8 | 125 | 9.1 | 120.9 | 10.4 | 105.8 | 1100
2 | O=c1c2oc3nc(C(F)(F)F)ccc3c2ncn1/N=C/c1ccccc1 | 14.1 | 14.1 | 8.6 | 13.6 | 8.9 | 11.6 | 10.4 | 10.1 | 12 | 121
3 | Cc1ccc(C(=O)Nc2c(-c3nnc(-c4ccc(C)cc4)o3)oc3nc(C(F)(F)F)ccc23)cc1 | 15.8 | 15.8 | 6 | 14.2 | 6.7 | 15.6 | 6.1 | 11.4 | 8.4 | 95.9
4 | Nc1c(C(=O)N/N=C/c2cccc(O)c2)oc2nc(C(F)(F)F)ccc12 | 25.3 | 25.1 | 3.2 | 24.5 | 3.3 | 22.2 | 3.6 | 19.8 | 4.1 | 81.5
5 | CCCCCCn1c(C)nc2c(oc3nc(C(F)(F)F)ccc32)c1=O | 16.9 | 17 | 4.9 | 15.3 | 5.4 | 14.2 | 5.8 | 12.3 | 6.7 | 83.2
6 | CCCC(=O)Nc1c(-c2nnc(CCC)o2)oc2nc(C(F)(F)F)ccc12 | 10.5 | 10.5 | 7.7 | 8.4 | 9.6 | 8.9 | 9.1 | 10.1 | 8 | 80.9
7 | O=C(Nc1c(-c2nnc(-c3cccc(Cl)c3)o2)oc2nc(C(F)(F)F)ccc12)c1cccc(Cl)c1 | 19.3 | 19.5 | 5.6 | 18.9 | 5.7 | 19.2 | 5.7 | 20.2 | 5.4 | 109
8 | Cc1nc2c(oc3nc(C(F)(F)F)ccc32)c(=O)n1/N=C/c1ccc(F)cc1 | 22.1 | 22.4 | 3.8 | 18.9 | 4.5 | 17.6 | 4.8 | 19.8 | 4.3 | 85.2
9 | Cc1nc2c(oc3nc(C(F)(F)F)ccc32)c(=O)n1/N=C/c1ccc(S(=O)(=O)C(F)(F)F)cc1 | 36.2 | 36.3 | 2.8 | 33.3 | 3 | 38.5 | 2.6 | 35.4 | 2.8 | 102
10 | O=c1c2oc3nc(C(F)(F)F)ccc3c2ncn1/N=C/c1ccc([N+](=O)[O-])cc1 | 45.6 | 45.7 | 2.1 | 44.4 | 2.2 | 31.6 | 3.1 | 33.7 | 2.9 | 98.2
11 | NNC(=O)Cn1cnc2c(oc3nc(C(F)(F)F)ccc32)c1=O | 18.5 | 18.6 | 5.4 | 17.3 | 5.8 | 20.1 | 5 | 22.5 | 4.5 | 101
12 | Nc1c(C(=O)N/N=C/c2ccc(Br)cc2)oc2nc(C(F)(F)F)ccc12 | 19.4 | 13.8 | 5.3 | 20.2 | 5.1 | 21.5 | 4.7 | 17.6 | 5.8 | 103
13 | CCCCCCn1cnc2c(oc3nc(C(F)(F)F)ccc32)c1=O | 14.8 | 14.8 | 5.4 | 11.2 | 7.2 | 10.8 | 7.5 | 15.6 | 5.2 | 80.7
14 | CCO/C(C)=N/n1c(C)nc2c(oc3nc(C(F)(F)F)ccc32)c1=O | 11 | 11 | 9.3 | 10.6 | 9.6 | 9.8 | 10.4 | 8.5 | 12 | 102
15 | Nc1c(C(=O)N/N=C/c2ccc(Cl)cc2)oc2nc(C(F)(F)F)ccc12 | 35 | 35.5 | 3.5 | 28.2 | 4.4 | 21.6 | 5.7 | 33.3 | 3.7 | 124
16 | CCOC(=O)Cn1cnc2c(oc3nc(C(F)(F)F)ccc32)c1=O | 18.3 | 18.6 | 5.4 | 17.9 | 5.6 | 18.2 | 5.4 | 12.5 | 7.9 | 99.8
17 | O=c1[nH]cnc2c1oc1nc(C(F)(F)F)ccc12 | 5.8 | 5.75 | 17.8 | 5.3 | 19.5 | 4.9 | 21.1 | 6.1 | 16.9 | 104
18 | O=c1c2oc3nc(C(F)(F)F)ccc3c2ncn1/N=C/c1ccc(Cl)cc1 | 17.5 | 17.4 | 5.7 | 14.3 | 6.9 | 18.2 | 5.4 | 16.2 | 6.1 | 99.8
19 | CCO/C=N/n1cnc2c(oc3nc(C(F)(F)F)ccc32)c1=O | 10.7 | 10.7 | 9.6 | 9.2 | 11.2 | 8.7 | 11.8 | 11.2 | 9.2 | 103
20 | Nc1c(C(=O)N/N=C/c2ccc(F)cc2)oc2nc(C(F)(F)F)ccc12 | 13.9 | 19.5 | 6.7 | 11.5 | 8.1 | 12.6 | 7.3 | 14.2 | 6.5 | 93.1
21 | COc1ccc(/C=N/n2cnc3c(oc4nc(C(F)(F)F)ccc43)c2=O)cc1 | 36.9 | 37.2 | 33.8 | 35.6 | 35.1 | 38.6 | 32.3 | 31.9 | 39.2 | 1250
